Assay results from patent US20240041042A1, “1-(PYRIDYL)-5-AZINYLPYRAZOLE DERIVATIVES, AND THEIR USE FOR CONTROL OF UNDESIRED PLANT GROWTH” (Bayer Aktiengesellschaft, priority 2020, published 2024).
Like-named read-outs stand apart in the source and are kept apart here.

Key:
Type in all cases: in vivo
[1] = test system: Digitaria sanguinalis (DIGSA); assay: Post-emergence herbicidal action against DIGSA; settings: 320 g/ha, visual rating about 3 weeks after treatment
Procedure, shortened: (§1)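 Rates were 320 g/ha or below, applied as aqueous WP/EC spray with 0.5% additive (600 l/ha) onto one-leaf-stage plants. About 3 weeks later in the greenhouse, damage was scored visually against untreated plants on a 0–100% scale, where 100% means plants died.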

[2] = test system: Viola tricolor (VIOTR); assay: Post-emergence herbicidal action against VIOTR
Procedure, shortened: as §1

[3] = test system: Digitaria sanguinalis (DIGSA); assay: Pre-emergence herbicidal action against DIGSA; settings: dosage 320 g/ha
Procedure, shortened: (§2)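 Greenhouse pot trial: seeds sown, soil-covered, sprayed before emergence with compound in water (0.5% additive; 600 l/ha; ≤320 g/ha). Scoring visual, ~3 weeks, 0–100% scale vs untreated.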

[4] = test system: Zea mays (ZEAMX); settings: crop plant compatibility, effect vs untreated controls
Procedure, shortened: (§3)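 Greenhouse crops in sandy loam sprayed post-emergence at the one-leaf stage, 2–3 weeks after sowing, with WP or EC formulations in water plus 0.5% additive at 600 l/ha. Damage rated visually about 3 weeks later versus untreated controls (0% = like control, 100% = dead); suffixes a–c denote different doses.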

[5] = test system: Oryza sativa (ORYSA); settings: crop plant compatibility, effect in comparison to untreated controls
Procedure, shortened: as §3

[6] = test system: Alopecurus myosuroides (ALOMY); assay: Post-emergence herbicidal action against ALOMY; settings: 320 g/ha, visual rating about 3 weeks after treatment vs untreated controls (100% = plants have died, 0% = like control plants)
Procedure, shortened: as §1

[7] = test system: Polygonum convolvulus (POLCO); assay: Post-emergence herbicidal action against POLCO
Procedure, shortened: as §1

[8] = test system: Alopecurus myosuroides (ALOMY); assay: Pre-emergence herbicidal action against ALOMY; settings: 320 g/ha; scored visually after about 3 weeks; 100% = plants have died
Procedure, shortened: as §2

[9] = test system: Zea mays (ZEAMX); settings: pre-emergence, crop plant compatibility, in comparison to untreated controls
Procedure, shortened: (§4)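 Scoring: visual, % of untreated control, about 3 weeks after a pre-emergence application to the soil surface. Application used WP or EC formulations diluted in water with 0.5% additive at 600 l/ha; dosage levels are marked by suffixes a, b and c.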

[10] = test system: Glycine max (GLXMA); settings: pre-emergence, crop plant compatibility, in comparison to untreated controls
Procedure, shortened: as §4

[11] = test system: Lolium rigidum (LOLRI); assay: Post-emergence herbicidal action against LOLRI; settings: dosage 320 g/ha
Procedure, shortened: as §1

[12] = test system: Pharbitis purpurea (PHBPU); assay: Post-emergence herbicidal action against PHBPU
Procedure, shortened: as §1

[13] = test system: Lolium rigidum (LOLRI); assay: Pre-emergence herbicidal action against LOLRI; settings: dosage 320 g/ha
Procedure, shortened: as §2

[14] = test system: Polygonum convolvulus (POLCO); assay: Pre-emergence herbicidal action against POLCO; settings: dosage 320 g/ha
Procedure, shortened: as §2

[15] = test system: Amaranthus retroflexus (AMARE); assay: Pre-emergence herbicidal action against AMARE; settings: 320 g/ha, visual scoring after about 3 weeks vs untreated controls
Procedure, shortened: as §2

[16] = test system: Viola tricolor (VIOTR); assay: Pre-emergence herbicidal action against VIOTR; settings: 320 g/ha, Viola tricolor
Procedure, shortened: as §2

[17] = test system: Abutilon theophrasti (ABUTH); assay: Post-emergence herbicidal action against ABUTH; settings: 320 g/ha, visual rating about 3 weeks after treatment vs untreated controls (100% = plants have died, 0% = like control plants)
Procedure, shortened: as §1

[18] = test system: Matricaria inodora (MATIN); assay: Pre-emergence herbicidal action against MATIN; settings: dosage 320 g/ha
Procedure, shortened: as §2

[19] = test system: Setaria viridis (SETVI); assay: Pre-emergence herbicidal action against SETVI; settings: dosage 320 g/ha
Procedure, shortened: as §2

[20] = test system: Echinochloa crus-galli (ECHCG); assay: Pre-emergence herbicidal action against ECHCG; settings: dosage 320 g/ha
Procedure, shortened: as §2

[21] = test system: Verconica persica (VERPE); assay: Post-emergence herbicidal action against VERPE
Procedure, shortened: as §1

[22] = test system: Amaranthus retroflexus (AMARE); assay: Post-emergence herbicidal action against AMARE
Procedure, shortened: as §1

[23] = test system: Matricaria inodora (MATIN); assay: Post-emergence herbicidal action against MATIN; settings: dosage 320 g/ha
Procedure, shortened: as §1

[24] = test system: Setaria viridis (SETVI); assay: Post-emergence herbicidal action against SETVI; settings: dosage 320 g/ha
Procedure, shortened: as §1

[25] = test system: Echinochloa crus-galli (ECHCG); assay: Post-emergence herbicidal action against ECHCG; settings: dosage 320 g/ha
Procedure, shortened: as §1

[26] = test system: Oryza sativa (ORYSA); settings: pre-emergence, crop plant compatibility, in comparison to untreated controls
Procedure, shortened: as §4

[27] = 80 g/ha, visual rating about 3 weeks after treatment vs untreated controls (100% = plants have died, 0% = like control plants)
[28] = 320 g/ha, visual rating about 3 weeks after treatment

SMILES: COC(=O)CCOC(=O)[C@@H](C)Oc1nn(-c2ccccn2)c(-c2ccc(Cl)nc2)c1Br [Example I-244]
- Post-emergence action against DIGSA in % [1]: 80%
- Post-emergence action against VIOTR in % ([2]; 80 g/ha): 80%
- Post-emergence action against VIOTR in % ([2]; 320 g/ha): 80%
- Pre-emergence action against DIGSA in % [3]: 90%
- Post-emergence action against ZEAMX in % ([4]; 80 g/ha): 20%
- Post-emergence action against ORYSA in % ([5]; 320 g/ha): 0%
- Post-emergence action against ALOMY in % [6]: 80%
- Post-emergence action against POLCO in % ([7]; dosage 80 g/ha): 80%
- Post-emergence action against POLCO in % ([7]; dosage 320 g/ha): 80%
- Pre-emergence action against ALOMY [8]: 90%
- Pre-emergence action against ZEAMX in % ([9]; 80 g/ha): 0%
- Pre-emergence action against GLXMA in % ([10]; 80 g/ha): 0%
- Post-emergence action against LOLRI in % [11]: 80%
- Post-emergence action against PHBPU in % ([12]; dosage 320 g/ha): 80%
- Pre-emergence action against LOLRI in % [13]: 100%
- Pre-emergence action against POLCO in % [14]: 80%
- Pre-emergence action against AMARE in % [15]: 90%
- Pre-emergence action against VIOTR in % [16]: 90%

SMILES: COC(=O)CCOC(=O)COc1nn(-c2ccccn2)c(-c2ccc(F)nc2)c1F [Example I-309]
- Post-emergence action against ABUTH in % [17]: 80%
- Pre-emergence action against MATIN in % [18]: 90%
- Pre-emergence action against SETVI in % [19]: 90%
- Pre-emergence action against ECHCG in % [20]: 80%
- Post-emergence action against POLCO in % ([7]; dosage 320 g/ha): 80%
- Pre-emergence action against ALOMY [8]: 90%
- Pre-emergence action against ZEAMX in % ([9]; 80 g/ha): 0%
- Pre-emergence action against ZEAMX in % ([9]; 320 g/ha): 10%
- Pre-emergence action against GLXMA in % ([10]; 80 g/ha): 0%
- Post-emergence action against LOLRI in % [11]: 90%
- Post-emergence action against PHBPU in % ([12]; dosage 80 g/ha): 80%
- Post-emergence action against PHBPU in % ([12]; dosage 320 g/ha): 90%
- Post-emergence action against VERPE in % ([21]; 320 g/ha, VERPE): 80%
- Post-emergence action against VERPE in % ([21]; dosage 80 g/ha): 80%
- Post-emergence action against AMARE in % [22, 27]: 90%
- Post-emergence action against AMARE in % [22, 28]: 90%
- Post-emergence action against MATIN in % [23]: 80%
- Pre-emergence action against POLCO in % [14]: 80%
- Post-emergence action against SETVI in % [24]: 90%
- Post-emergence action against ECHCG in % [25]: 90%
- Pre-emergence action against AMARE in % [15]: 90%

SMILES: C[C@@H](Oc1nn(-c2ccnc(Cl)c2)c(-c2ccc(F)nc2)c1Br)C(=O)O [III-30]
- Post-emergence action against VIOTR in % ([2]; 320 g/ha): 80%
- Post-emergence action against ZEAMX in % ([4]; 80 g/ha): 20%
- Post-emergence action against ORYSA in % ([5]; 80 g/ha): 10%
- Post-emergence action against ORYSA in % ([5]; 320 g/ha): 20%
- Post-emergence action against ALOMY in % [6]: 80%
- Post-emergence action against POLCO in % ([7]; dosage 320 g/ha): 90%
- Pre-emergence action against ZEAMX in % ([9]; 80 g/ha): 0%
- Pre-emergence action against ZEAMX in % ([9]; 320 g/ha): 10%
- Pre-emergence action against ORYSA in % ([26]; 80 g/ha): 10%
- Pre-emergence action against ORYSA in % ([26]; 320 g/ha): 20%
- Pre-emergence action against GLXMA in % ([10]; 80 g/ha): 20%
- Pre-emergence action against GLXMA in % ([10]; 320 g/ha): 20%
- Post-emergence action against VERPE in % ([21]; 320 g/ha, VERPE): 80%
- Post-emergence action against AMARE in % [22, 27]: 80%
- Post-emergence action against AMARE in % [22, 28]: 90%

SMILES: C[C@@H](Oc1nn(-c2ccccn2)c(-c2ccc(Cl)nc2)c1Br)C(=O)O [Example I-240]
- Post-emergence action against VIOTR in % ([2]; 320 g/ha): 80%
- Pre-emergence action against DIGSA in % [3]: 90%
- Post-emergence action against ZEAMX in % ([4]; 80 g/ha): 10%
- Post-emergence action against ZEAMX in % ([4]; 320 g/ha): 20%
- Post-emergence action against ORYSA in % ([5]; 80 g/ha): 0%
- Post-emergence action against ORYSA in % ([5]; 320 g/ha): 0%
- Post-emergence action against ALOMY in % [6]: 80%
- Post-emergence action against POLCO in % ([7]; dosage 320 g/ha): 80%
- Pre-emergence action against ALOMY [8]: 90%
- Pre-emergence action against GLXMA in % ([10]; 80 g/ha): 20%
- Post-emergence action against LOLRI in % [11]: 80%
- Pre-emergence action against LOLRI in % [13]: 90%
- Pre-emergence action against AMARE in % [15]: 90%
- Pre-emergence action against VIOTR in % [16]: 90%
